System: primary microglial cells treated with beta amyloid oligomer (AB1-40)
Test: Cell viability of primary microglia treated with beta amyloid oligomer
Type: cell-based, ICR mice
Conditions: 5 µM for 1 hour, then AB1-40 10 µM 24 hours; FIG. 15
Procedure: Mouse-derived microglia (BV2 cells) purchased from the Korean Cell Line Bank were seeded at a density of 4x10^5 cells/well into 96-well plates, each well containing DMEM (Dulbecco’s Modified Eagle’s Media) supplemented with 10% FBS and 1% antibiotics, and stabilized by incubation for 24 hours. Thereafter, the cells were treated for 24 hours with various concentrations (0.5, 1, and 5 µM) of daidzein, o-desmethylangolensin (O-DMA), S-equal, SPA1413, and SPA1426. After removal of the medium, the cells were treated 0.5 mg/ml 3-(4,5-dimethylthiazol-2-yl)-2,5-diphenyltetrazolium bromide (MTT) solution 1 hour. The reduced formazan was dissolved in 150 µl of dimethyl sulfoxide (DMSO) and absorbance was read at 570 nm in a microspectrophotometer to determine cell viability. Cell viability of the cells treated with each sample was determined relative to that of the untreated normal control (Control), which was set to be 100%, and the results are depicted in FIGS. 3 and 4 (upper).
Primary microglial cells isolated from the brain of 1-year-old ICR mice were seeded at a density of 2x10^5 cells/well into 96-well plates and stabilized for 24 hours. Thereafter, the cells were treated with 5 µM of daidzein, S-equal, SPA1413, or SPA1426 for 1 hour and then with beta amyloid oligomer (AB1-40, 10 µM) for 24 hours at 37° C. Cell viability was assayed in the same manner as in Experimental Example 2.

Q: How did the “cell viability after beta amyloid oligomer treatment” value turn out when `Oc1ccc(C2=Cc3ccc(O)cc3OC2)cc1` [SPA1413, 3-(4-Hydroxyphenyl)-2H-chromen-7-ol] was run?
A: significantly increased in cell viability
